Earlier results as cited in patent US20260232776A1, “COMBINATIONS OF DENDRITIC CELL-BASED VACCINES AND CHECKPOINT INHIBITORS” (Mayo Foundation for Medical Education and Research, priority 2023, published 2026).

Test system: p44/p42 MAPK or SAPK/JNK

Structure (SMILES): C[S+]([O-])c1ccc(-c2nc(-c3ccncc3)c(-c3ccc(F)cc3)[nH]2)cc1 (stereo not shown) [SBA203580, adezmapimod]
- activity against other MAPKs such as p44/p42 MAPK or SAPK/JNK: little activity
